Results as given in publication PMC7887755, “Structure–Activity Relationships of Pyrazolo[1,5-a]pyrimidin-7(4H)-ones as Antitubercular Agents” (ACS Infectious Diseases, 2021).
In brackets after ≈: the same amount, converted by molar mass. Several values for one entry are separate records, joined by “and”; a condition that tells them apart may be missing. Equal values may be shown once.

Assays:
[1] = tested on: Mtb strain H37Rv cydC::aph; assay type: cell-based, Mycobacterium tuberculosis
[2] = tested on: P19^R strain rv1751 A434T; assay type: cell-based, Mycobacterium tuberculosis
[3] = tested on: P19^R strain rv1751 L399W; assay type: cell-based, Mycobacterium tuberculosis
[4] = tested on: P19^R strain rv1751 L250Q; assay type: cell-based, Mycobacterium tuberculosis
[5] = tested on: P19^R strain rv1751 P152S; assay type: cell-based, Mycobacterium tuberculosis
[6] = tested on: P19^R strain rv1751 V96L; assay type: cell-based, Mycobacterium tuberculosis
[7] = tested on: P19^R strain rv1751 H97Y/N; assay type: cell-based, Mycobacterium tuberculosis
[8] = tested on: Mtb H37Rv

NNC(=O)c1ccncc1 [INH, isoniazid, reference compound]
MIC CydKO [1]: 0.30 µM (≈ 0.0411 µg/mL) | MIC A434T [2]: 0.04 µM (≈ 0.00549 µg/mL) | MIC L399W [3]: 0.04 µM (≈ 0.00549 µg/mL) | MIC L250Q [4]: 0.04 µM (≈ 0.00549 µg/mL) | MIC P152S [5]: 0.04 µM (≈ 0.00549 µg/mL) | MIC V96L [6]: 0.04 µM (≈ 0.00549 µg/mL) | MIC H97Y/N [7]: 0.04 µM (≈ 0.00549 µg/mL)

Cc1nn2c(=O)cc(-c3ccc(F)c(F)c3)[nH]c2c1-c1ccccc1 [Compound P19, 5-(3,4-Difluorophenyl)-2-methyl-3-phenylpyrazolo[1,5-a]pyrimidin-7(4H)-one]
MIC CydKO [1]: 3.13 µM (≈ 1.06 µg/mL) | MIC A434T [2]: 1.56 µM (≈ 0.526 µg/mL) | fold change A434T [2]: 2 | MIC L399W [3]: 12.5 µM (≈ 4.22 µg/mL) | fold change L399W [3]: 16 | MIC L250Q [4]: 2.3 µM (≈ 0.776 µg/mL) | fold change L250Q [4]: 3 | MIC P152S [5]: 1.56 µM (≈ 0.526 µg/mL) | fold change P152S [5]: 2 | frequency of resistant clones [8]: 3 × 10^–8 and 4 × 10^–9 | MIC V96L [6]: 2.3 µM (≈ 0.776 µg/mL) | fold change V96L [6]: 3 | MIC H97Y/N [7]: 1.56 µM (≈ 0.526 µg/mL) | fold change H97Y/N [7]: 2

Cc1nn2c(=O)cc(-c3ccccc3)[nH]c2c1-c1ccccc1 [Compound 1, 2-Methyl-3,5-diphenylpyrazolo[1,5-a]pyrimidin-7(4H)-one]
MIC CydKO [1]: 12.5 µM (≈ 3.77 µg/mL) | MIC A434T [2]: 1.56 µM (≈ 0.47 µg/mL) | fold change A434T [2]: 1.3 | MIC L399W [3]: 12.5 µM (≈ 3.77 µg/mL) | fold change L399W [3]: 10 | MIC L250Q [4]: 3.13 µM (≈ 0.943 µg/mL) | fold change L250Q [4]: 2.6 | MIC P152S [5]: 2.3 µM (≈ 0.693 µg/mL) | fold change P152S [5]: 2 | MIC V96L [6]: 2.3 µM (≈ 0.693 µg/mL) | fold change V96L [6]: 2 | MIC H97Y/N [7]: 1.56 µM (≈ 0.47 µg/mL) | fold change H97Y/N [7]: 1.3

COc1ccc(-c2cc(=O)n3nc(C)c(-c4ccc(F)cc4)c3[nH]2)cc1 [Compound 4, 3-(4-Fluorophenyl)-5-(4-methoxyphenyl)-2-methylpyrazolo[1,5-a]pyrimidin-7(4H)-one, reference compound]
MIC CydKO [1]: 9.40 µM (≈ 3.28 µg/mL) | MIC A434T [2]: 2.3 µM (≈ 0.804 µg/mL) | fold change A434T [2]: 1.5 | MIC L399W [3]: 3.13 µM (≈ 1.09 µg/mL) | fold change L399W [3]: 2 | MIC L250Q [4]: 4.7 µM (≈ 1.64 µg/mL) | fold change L250Q [4]: 3 | MIC P152S [5]: 2.3 µM (≈ 0.804 µg/mL) | fold change P152S [5]: 1.5 | MIC V96L [6]: 2.3 µM (≈ 0.804 µg/mL) | fold change V96L [6]: 1.5 | MIC H97Y/N [7]: 1.56 µM (≈ 0.545 µg/mL) | fold change H97Y/N [7]: 1

O=c1cc(CC2CCCCC2)[nH]c2c(-c3ccc(Cl)cc3)cnn12 [Compound 2, 3-(4-Chlorophenyl)-5-(cyclohexylmethyl)pyrazolo[1,5-a]pyrimidin-7(4H)-one, reference compound]
MIC CydKO [1]: 25.0 µM (≈ 8.55 µg/mL) | MIC A434T [2]: 1.2 µM (≈ 0.41 µg/mL) | fold change A434T [2]: 3 | MIC L399W [3]: 0.39 µM (≈ 0.133 µg/mL) | fold change L399W [3]: 1 | MIC L250Q [4]: 1.2 µM (≈ 0.41 µg/mL) | fold change L250Q [4]: 3 | MIC P152S [5]: 1.2 µM (≈ 0.41 µg/mL) | fold change P152S [5]: 3 | MIC V96L [6]: 1.2 µM (≈ 0.41 µg/mL) | fold change V96L [6]: 3 | MIC H97Y/N [7]: 0.39 µM (≈ 0.133 µg/mL) | fold change H97Y/N [7]: 1

Cc1nn2c(=O)cc(-c3ccc(Cl)c(Cl)c3)[nH]c2c1-c1ccc(F)cc1 [Compound P24, 5-(3,4-Dichlorophenyl)-3-(4-fluorophenyl)-2-methylpyrazolo[1,5-a]pyrimidin-7(4H)-one]
MIC A434T [2]: 3.12 µM (≈ 1.21 µg/mL) | fold change A434T [2]: 2 | MIC L399W [3]: 18.8 µM (≈ 7.3 µg/mL) | fold change L399W [3]: 12 | MIC L250Q [4]: 6.26 µM (≈ 2.43 µg/mL) | fold change L250Q [4]: 4 | MIC P152S [5]: 3.90 µM (≈ 1.51 µg/mL) | fold change P152S [5]: 2.5 | MIC V96L [6]: 7.82 µM (≈ 3.04 µg/mL) | fold change V96L [6]: 5 | MIC H97Y/N [7]: 6.25 µM (≈ 2.43 µg/mL) | fold change H97Y/N [7]: 4
